≈ marks a conversion by molar mass, not a printed value. Where “and” joins values, the source holds several entries; their conditions need not be identical. Identical values can stand only once. Like-named read-outs stand apart in the source and are kept apart here.
How the values were obtained:
H. pylori = test: MIC testing by broth dilution, H. pylori; type: cell-based, Helicobacter pylori
How it was run: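 Helicobacter pylori was tested using a standard broth dilution method in 96 well microplates, each well holding a standard dilution of the organism in 100 microliters of Brain Heart Infusion. Compounds started at 32 μg/ml in 200 microliters in the first well and were serially diluted from 32 to 0.06. Wells were read visually at 24 h, and the MIC was the well with no growth.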

MRSA = test: MIC testing by broth dilution, MRSA; type: cell-based, Staphylococcus aureus
How it was run: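 Values are broth-dilution MICs, defined as the well showing no growth on visual reading after 24 h; the tested range was 32 to 0.06 μg/ml, in organism-specific media (LB, Trypticase Soy, Brain Heart Infusion). The C. difficile entries come instead from anaerobic Kirby-Bauer disk zones, normalised to NTZ.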

S. epidermidis biofilm = S. epidermidis biofilm assay (activity tables); type: cell-based, Staphylococcus epidermidis
How it was run: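 Overnight TSB cultures diluted to OD600 0.01 and grown static with compound (triplicate) at 37° C for 16 h; turbidity recorded for growth. Biofilm: washed wells ethanol-fixed, stained with 0.5% crystal violet, A570 read before and after 95% ethanol extraction; mean ± SD.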

[1] = test system: S. epidermidis strain 9142; test: Biofilm determination, crystal violet, S. epidermidis; type: cell-based, Staphylococcus epidermidis
Experimental: Staphylococcal strains were cultured overnight in TSB at 37° C. with shaking, diluted in fresh medium to an OD600 of 0.01 and 200 W was dispensed into sterile flat bottom polystyrene 96 well microtiter plates (Costar 3596, Corning Inc.). […] Each compound and dilution was tested in triplicate. The plates were incubated overnight at 37° C. in a humidified incubator, without shaking and both growth and biofilm accumulation were determined at 16 h.
Following recording of turbidities, the culture medium was aspirated and the wells were washed three times with distilled water, blotted on paper towels, and fixed with 75% ethanol for 10 minutes.
To visualize biofilm material, 0.5% crystal violet was added to each well and after 5 minutes was removed and the wells washed three times with distilled water. Plates were read using a microplate reader at a wavelength of 570 nm. The dye was then extracted by adding 200 W of 95% ethanol, and the absorbance was read again at 570 nm. All assays were performed in triplicate and the mean and standard deviation determined. Generally, the ethanol-solubilized crystal violet was more reliable and these determinations are reported throughout.

E. coli 042 aggR-lacZ = test: Reporter gene fusions aggR-lacZ, aafA-phoA; type: cell-based, Escherichia coli; settings: β-galactosidase, static growth, 12 μg/ml NTZ
Experimental: Reporter gene fusions were provided by James Nataro (University of Maryland) and included E. coli 042 aggR-lacZ and E. coli 042 aafA-phoA (3.4.14 and 2.94) (3) and an undefined promoterless lacZ control strain of E. coli 042. Strains were grown without shaking in MinA-G medium supplemented with 0, 12 or 25 μg/ml of NTZ for 16 h at 37° C. β-Galactosidase activity was determined spectrophotometrically and reported in Miller units (24). Alkaline phosphatase activity was also determined spectrophotometrically using p-nitrophenol as previously described (23). All assays were performed in triplicate in three independent experiments and the mean and standard deviation are reported.

[2] = test system: AafA fimbriae of EAEC 042; test: Fimbrial filaments by SDS-PAGE, immunoblot, immunofluorescence; type: cell-based, Escherichia coli; settings: EAEC 042, MinA-G, 20 μg/ml
Experimental: A simplified procedure for mechanical removal of fimbriae was modified from Dodd and Eisenstein (5). […] The cultures were spun down at 4,000 rpm for 5 min at 25° C. Pellets were resuspended in 2 ml PBS, vortexed 2× for 30 sec to shear off flagella and fimbriae, and then centrifuged at 8,000 rpm for 10 min to remove whole cells. The supernatants, containing fimbrial filaments, were transferred to new tubes, and 8 ml of acetone were added to precipitate proteins. Solutions were spun down again at 8,000 rpm for 10 min, and the acetone was decanted. The remaining protein pellets were resuspended in 50 μl PBS and 100 μl 3× loading buffer containing 2-mercaptoethanol.
To analyze the proteins contained in the biofilm, the flasks were rinsed with water to remove residual bacteria, and the biofilms were dissolved in 1-2 ml 1% SDS. 50 μl of each solution was combined with 100 μl 3× loading buffer in PCR tubes. All five samples were run in a NuPAGE 4-12% Bis-Tris gel at 120 V and stained with Coomassie brilliant blue or used directly for transfer of proteins to nitrocellulose.
Ponceau red stained nitrocellulose was used to visualize transferred proteins and immunoblotting protocols used in this study as described (14). […] The slides were washed 3× in PBS, dried and visualized with a Zeiss epi-fluorescence microscope.

CC(=O)Oc1ccccc1C(=O)Nc1ncc([N+](=O)[O-])s1 [Nitazoxanide, 2-(acetyloxy)-N-(5-nitro-2-thiazolyl)benzamide, reference compound]
MIC (H. pylori; 2-amino-3,5-dinitrothiophene analogues table, read-out: MIC H. pylori): 13.0 µM (≈ 3.99 µg/mL) | MIC (H. pylori; Helicobacter pylori, Furan analogues table, read-out: MIC H. pylori): 13 µM (≈ 3.99 µg/mL) | MIC (H. pylori; Helicobacter pylori, broth dilution, Brain Heart Infusion, 24 h, read-out: MIC (μM) H. pylori): 13 µM (≈ 3.99 µg/mL) | MIC (H. pylori; Thiophene analogues table, read-out: MIC H. pylori): 13.0 µM (≈ 3.99 µg/mL) | MIC (MRSA; 2-amino-3,5-dinitrothiophene analogues table, read-out: MIC MRSA): 39.1 µM (≈ 12 µg/mL) | MIC (MRSA; Staphylococcus aureus, MRSA, broth dilution, Trypticase Soy, 24 h, read-out: MIC (μM) MRSA): 39.1 µM (≈ 12 µg/mL) | MIC (MRSA; Thiophene analogues table, read-out: MIC MRSA): 39.1 µM (≈ 12 µg/mL) | MIC (μM) S. epidermidis Biofilm (S. epidermidis biofilm): 32.5 µM (≈ 9.99 µg/mL) | MIC S. epidermidis Biofilm (S. epidermidis biofilm; 2-amino-3,5-dinitrothiophene analogues table): 32.5 µM (≈ 9.99 µg/mL) | MIC S. epidermidis Biofilm (S. epidermidis biofilm; Furan analogues table): 32.5 µM (≈ 9.99 µg/mL) | MIC S. epidermidis Biofilm (S. epidermidis biofilm; Thiophene analogues table): 32.5 µM (≈ 9.99 µg/mL) | IC50 biofilm production ([1]; S. epidermidis strain 9142, crystal violet, listed as NTZ): 4 µg/mL (≈ 13 µM) | IC50 ([1]; Staphylococcus epidermidis, 9142, S. epidermidis strain 9142, crystal violet, read-out: IC50 biofilm production): 2.5 µg/mL and ~8 µM | IC50 ([1]; Staphylococcus epidermidis, 9142, clinical S. epidermidis isolates and strain 5179-R1, read-out: IC50 biofilm formation, all strains tested): 2.5 to 5 µg/mL (≈ 8.14 to 16.3 µM) | Biofilm accumulation on the bottom of flasks ([1]; static (microaerobic) growth, 15 μg/ml): completely ablated | Increase in aggR:lacZ expression over untreated controls (E. coli 042 aggR-lacZ): ~2.5 fold | Fimbrial filaments from vortexed whole cells [2]: nearly absent

From patent publication US8835644B2, “Broad spectrum benzothiophene-nitrothiazolide and other antimicrobials” (University of Virginia Patent Foundation, priority 2009, dated 2014)
